What was measured:
[1] = target: T1, ACLY (Homo sapiens (Human), UniProt P53396); assay: InCell Pulse assay (permeate HEK293 cells, bind to and stabilize ACLY); assay type: cell-based; conditions: HEK293 cells transfected with pICP-ACLY(FL)-ePL; 1 hour at 37° C., 55° C. heat pulse 10 minutes; read-out: InCell Pulse IC50 GMean
Summary of the method: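 HEK293 cells transiently expressing full-length ACLY-ePL were exposed in OptiMEM to 11-point, 3-fold compound dilutions for 1 h at 37 °C, heat-pulsed 10 min at 55 °C, then lysed for enzyme-fragment complementation luminescence. Four-parameter fit, normalised to 0.5% DMSO and 1 μM NDI-094311.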

[2] = target: T1, ACLY; assay: Human ACLY (hACLY) RF/MS activity assay; assay type: biochemical; conditions: 1 nM hACLY; 30 min pre-incubation; 15 μM Coenzyme A, 50 μM ATP, 50 μM citrate; CoA to Acetyl-CoA by RF/MS; read-out: RFMS IC50 GMean
Summary of the method: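 RapidFire MS read CoA-to-acetyl-CoA conversion as a substrate/product ratio after 30 min at RT (20° C) with final 15 μM CoA, 50 μM ATP, 50 μM citrate. Before substrate addition, 1 nM enzyme sat 30 min with compound (top 10 μM, two-fold dilutions; 1% DMSO) in pH 8.0 Hepes/MgCl2/NaCl/DTT buffer.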

T1 sequence (P53396 whole entry, the tested form may be a part): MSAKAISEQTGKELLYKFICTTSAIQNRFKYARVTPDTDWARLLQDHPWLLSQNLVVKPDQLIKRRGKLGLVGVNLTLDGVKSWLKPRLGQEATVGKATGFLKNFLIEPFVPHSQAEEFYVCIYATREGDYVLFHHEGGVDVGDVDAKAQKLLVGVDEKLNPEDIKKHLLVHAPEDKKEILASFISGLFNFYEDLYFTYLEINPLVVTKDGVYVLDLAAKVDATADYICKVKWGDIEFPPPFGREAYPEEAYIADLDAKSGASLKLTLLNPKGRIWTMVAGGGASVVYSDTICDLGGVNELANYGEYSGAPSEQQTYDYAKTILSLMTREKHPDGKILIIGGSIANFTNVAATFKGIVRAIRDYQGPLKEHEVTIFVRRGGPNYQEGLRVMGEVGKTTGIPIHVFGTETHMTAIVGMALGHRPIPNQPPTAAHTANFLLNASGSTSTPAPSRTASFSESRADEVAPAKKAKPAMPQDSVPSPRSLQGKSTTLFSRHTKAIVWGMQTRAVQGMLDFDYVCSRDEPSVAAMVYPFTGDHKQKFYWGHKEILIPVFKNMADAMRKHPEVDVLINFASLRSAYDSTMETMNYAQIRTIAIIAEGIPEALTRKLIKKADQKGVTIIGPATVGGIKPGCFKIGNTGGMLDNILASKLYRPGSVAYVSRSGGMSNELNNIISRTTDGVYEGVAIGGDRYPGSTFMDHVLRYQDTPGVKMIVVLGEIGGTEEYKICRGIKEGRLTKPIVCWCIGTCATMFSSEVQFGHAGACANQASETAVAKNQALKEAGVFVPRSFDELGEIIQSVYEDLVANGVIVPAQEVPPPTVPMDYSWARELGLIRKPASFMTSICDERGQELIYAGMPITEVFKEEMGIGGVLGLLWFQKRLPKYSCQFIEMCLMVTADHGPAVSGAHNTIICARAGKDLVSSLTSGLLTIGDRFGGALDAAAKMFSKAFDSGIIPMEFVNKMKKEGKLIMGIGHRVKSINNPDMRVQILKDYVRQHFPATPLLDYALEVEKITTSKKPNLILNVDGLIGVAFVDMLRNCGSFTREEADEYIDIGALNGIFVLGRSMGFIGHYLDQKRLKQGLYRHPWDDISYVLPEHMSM

SMILES | IC50 [1] [nM] | IC50 [2] [nM]
O=C1OCc2ncccc2-c2cc(c(F)cc2F)NS(=O)(=O)c2cc1cc(Cl)c2O [Compound 88, 13-chloro-19,21-difluoro-14-hydroxy-16,16-dioxo-9-oxa-16λ6-thia-6,17-diazatetracyclo[16.3.1.111,15.02,7]tricosa-1(21),2(7),3,5,11,13,15(23),18(22),19-nonaen-10-one] | ≥ 50000 | 100 to 10000
O=S1(=O)Nc2cc(ccc2F)-c2ccccc2CCCOCc2cc(Cl)c(O)c1c2 [Compound 92, 15-chloro-21-fluoro-18,18-dioxo-11-oxa-18λ6-thia-19-azatetracyclo[18.3.1.113,17.02,7]pentacosa-1(24),2,4,6,13,15,17(25),20,22-nonaen-16-ol] | 1000 to 50000 | 100 to 10000
O=C1OCCc2ccccc2-c2ccc(F)c(c2)NS(=O)(=O)c2cc1cc(Cl)c2O [Compound 72, 14-chloro-20-fluoro-15-hydroxy-17,17-dioxo-10-oxa-17λ6-thia-18-azatetracyclo[17.3.1.112,16.02,7]tetracosa-1(22),2(7),3,5,12,14,16(24),19(23),20-nonaen-11-one] | < 300 | < 20
O=C1OCCCn2c(cc3ccccc32)-c2cc(c(F)cc2F)NS(=O)(=O)c2cc1cc(Cl)c2O [Compound 27, 18-chloro-24,26-difluoro-19-hydroxy-14-oxa-21lambda6-thia-10,22-diazapentacyclo[21.3.1.1^16,20.0^2,10.0^4,9]octacosa-1(27),2,4,6,8,16,18,20(28),23,25-decaene-15,21,21-trione] | ≥ 50000 | 20 to 100
CN1Cc2ccccc2-c2cc(c(F)cc2F)NS(=O)(=O)c2cc(cc(Cl)c2O)C1=O [Compound 91, 13-chloro-19,21-difluoro-14-hydroxy-9-methyl-16,16-dioxo-16λ6-thia-9,17-diazatetracyclo[16.3.1.111,15.02,7]tricosa-1(22),2,4,6,11(23),12,14,18,20-nonaen-10-one] | ≥ 50000 | 100 to 10000
O=C1NCc2ncccc2-c2cc(c(F)cc2F)NS(=O)(=O)c2cc1cc(Cl)c2O [Compound 90, 13-chloro-19,21-difluoro-14-hydroxy-16,16-dioxo-16λ6-thia-6,9,17-triazatetracyclo[16.3.1.111,15.02,7]tricosa-1(22),2,4,6,11,13,15(23),18,20-nonaen-10-one] | ≥ 50000 | 100 to 10000
O=C1OCC2Cc3cccc(c3O2)-c2cc(c(F)cc2F)NS(=O)(=O)c2cc1cc(Cl)c2O (single isomer, unassigned) [Compound 40, 15-chloro-21,23-difluoro-16-hydroxy-18,18-dioxo-8,11-dioxa-18λ6-thia-19-azapentacyclo[18.3.1.16,9.113,17.02,7]hexacosa-1(23),2(7),3,5,13,15,17(25),20(24),21-nonaen-12-one] | 300 to 1000 | 100 to 10000

The next lines start with the values.

IC50 [1] [nM] | IC50 [2] [nM] | SMILES
< 300 | 20 to 100 | COc1cc(F)c2cc1-c1ccccc1OCCOC(=O)c1cc(Cl)c(O)c(c1)S(=O)(=O)N2 [Compound 47, 15-chloro-21-fluoro-16-hydroxy-23-methoxy-18,18-dioxo-8,11-dioxa-18λ6-thia-19-azatetracyclo[18.3.1.113,17.02,7]pentacosa-1(23),2(7),3,5,13(25),14,16,20(24),21-nonaen-12-one]
1000 to 50000 | 100 to 10000 | CC1CCOC(=O)c2cc(Cl)c(O)c(c2)S(=O)(=O)Nc2cc(c(F)cc2F)-c2ccccc21 (single isomer, unassigned) [Compound 44, 15-chloro-21,23-difluoro-16-hydroxy-8-methyl-18,18-dioxo-11-oxa-18λ6-thia-19-azatetracyclo[18.3.1.113,17.02,7]pentacosa-1(23),2(7),3,5,13,15,17(25),20(24),21-nonaen-12-one]
< 300 | 20 to 100 | O=C1OCCOc2ccc(Br)cc2-c2cc(c(F)cc2F)NS(=O)(=O)c2cc1cc(Cl)c2O [Compound 24, 4-bromo-15-chloro-21,23-difluoro-16-hydroxy-8,11-dioxa-18lambda6-thia-19-azatetracyclo[18.3.1.1^13,17.0^2,7]pentacosa-1(24),2,4,6,13,15,17(25),20,22-nonaene-12,18,18-trione]

Reference: patent publication US20250289793A1, “MACROCYCLIC INHIBITORS OF ATP CITRATE LYASE” (Esperion Therapeutics, Inc., priority 2022, published 2025)
